The text below walks through data of patent US10285986B2, “Compounds and anti-tumor NQO1 substrates” (The Board of Trustees of the University of Illinois, priority 2011, dated 2019).

Values after ≈ are worked out from the molar mass of the structure shown.

Data set [1] can be described thus: Aqueous solubility in pH 7.4 PBS by LC-MS. It is filed as physicochemical. The essentials:
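Solid compound was sonicated 30 min in pH 7.4 PBS (the bath warmed to 45 °C, samples were cooled before filtration) and passed through a 0.45 μm filter. Filtrate was quantified by LC-MS with UV at 275 nm against a 1–100 μM DNQ calibration curve, which was also applied to derivatives. Strongly coloured filtrates were diluted 10-fold in PBS.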

In data set [2] the test system is healthy mice. Description: in vivo. To be noted: mouse. The source says:
Because of the difficulty of repeated tail vein injections in mice, our group is using IP administration of compound.
All of these derivatives are currently being assessed for their maximum tolerated dose (MTD) in healthy mice. Compounds are formulated in HPβCD and delivered by IP injection to two mice once daily for five days.

Data set [3] relates to A549 NSCLC cells. Briefly: A549 subcutaneous xenograft model in nude mice, with or without ionizing radiation. The class given is in vivo, Athymic nude mice. Particulars: 5 mg/kg by tail vein on days 1, 3, 5, 7, 9, with or without 2 grays radiation; preliminary. The method, then:
We are actively experimenting with DNQ in mouse models of cancer. The Boothman lab has completed a pilot study of DNQ in an A549 subcutaneous xenograft model in nude mice (Blanco et al., Cancer Res. 2010, 70, 3896). […] Athymic nude mice were inoculated with A549 NSCLC cells and established tumors were allowed to grow to ˜200 mm^3. Mice were assigned to one of six treatment groups—four mice per group. […] The doses of DNQ were chosen based on the observation that 10 mg/kg DNQ elicited adverse reactions in mice. The other three groups received the same DNQ regimen and also received 2 grays of ionizing radiation on each treatment day. Tumor volumes were measured over the subsequent weeks (FIG. 3).

The test system of data set [4] is NQO1+ cells. Briefly: NQO1-dependent lethality to cancer cells in vitro. The class given is cell-based. From the text: NQO1 or PARP-1 knockdown spared the short-term lethality of DNQ-treated NQO1+ cells. BAPTA-AM (cytosolic Ca^2+ chelator) and catalase (enzymatic H2O2 scavenger) rescued DNQ-induced lethality by long-term survival assessments.
The nature of data set [5]: pKa, log P and log D of 4-31 measured by Absorption Systems. It is filed as physicochemical. The source says:
A sample of compound 4-31 was delivered to Absorption Systems, a company that specializes in preclinical formulation and stability studies. […] They measured a few physical properties of 4-31, including pKa, log P and log D. Through potentiometric titrations they measured the pKa of 4-31 to be 8.0.

Data set [6] can be described thus: Stability during incubation in plasma, whole blood and liver microsomes. It is filed as in vitro ADME. Particulars: rat, dog, and human. The method, then:
Absorption Systems measured the stability of 4-31 during incubation in rat, dog, and human plasma, whole blood, and liver microsomes. […] This is in strong contrast top-lap, which has been reported to be completely degraded within about 30 min in whole blood.
A general note: Microsomes from liver hold many membrane-bound enzymes, among them those of drug oxidation.

Data set [7] relates to DNA single strand damage, base lesions and double strand breaks. Briefly: DNA damage in vitro (alkaline comet assays, nuclear staining of DSB markers). The class given is cell-based. To be noted: data not shown.
The mark [8] stands for this setting: phosphate buffered saline, pH 7.4, aqueous buffer, thermodynamic from solid, PBS pH 7.4, Table 4.3.

With `Cc1cc(=O)[nH]c2c1C(=O)c1c(C)cc(=O)n(C)c1C2=O` [DNQ, Deoxynyboquinone, reference compound], the solubility at 30 min turned out to be 100 µM (≈ 28.4 µg/mL) in data set [1] (pH 7.4 PBS); 115 µM (≈ 32.7 µg/mL) in data set [1] (setting [8]); 115 µM (≈ 32.7 µg/mL) in data set [1] (phosphate buffered saline, pH 7.4, aqueous buffer, thermodynamic from solid, pH 7.4 PBS). In addition, the “dose that elicited adverse reactions in mice” value in data set [2] came to 10 mg/kg. Also, the “phenotype in mice at the MTD” value in data set [2] (ip) was “lethargic and unresponsive to touch”. Further, the “rate of tumor growth” value in data set [3] was “slower the rate of tumor growth relative to control”. The compound also displayed an LD90 in data set [4] (2 hour exposure of NQO1+ cells) of 50 to 250 nM. Further, the “potency compared to β-lapachone” value in data set [4] (cancer cell types, NQO1-dependent) is recorded as 20- to 100 fold.
In turn, `Cc1cc(=O)[nH]c2c1C(=O)c1c(C)cc(=O)n(CC(C)C)c1C2=O` [Compound 87] returned a solubility at 30 min in data set [1] (setting [8]) of 115 µM (≈ 37.5 µg/mL). For the same compound, the logP in data set [5] (octanol/0.15 M KCl, unionized compound) is 1.8. Moreover, the logD in data set [5] (pH 3.0, octanol/0.15 M KCl) turned out to be 1.78; in data set [5] (pH 4.0, octanol/0.15 M KCl) it was 1.78; in data set [5] (pH 6.8, octanol/0.15 M KCl), 1.76; in data set [5] (pH 7.0, octanol/0.15 M KCl), 1.75; in data set [5] (pH 8.0, octanol/0.15 M KCl), 1.49; in data set [5] (pH 9.0, octanol/0.15 M KCl) it was 0.76. In addition, the pKa in data set [5] (potentiometric titrations, N—H) stood at 8. In data set [6] (1 hour), the “stability in liver microsomes” value was “no sign of degradation”. The “stability in plasma or whole blood” value in data set [6] (2 hours) is given as “no sign of degradation”. In addition, the “DNA single strand damage and base lesions” value in data set [7] (alkaline comet assays) was “extensive initial DNA single strand damage and base lesions”. In data set [7], the “delay of DNA double strand break formation after initial DNA SSBs and base lesions” value was 15 to 30 min.

As a reminder, the solubility is the concentration that dissolves in the medium under given conditions. Higher therefore signals a readily soluble substance. One may read the logP as the decadic logarithm of the partition coefficient of the neutral form, usually between octanol and water. The low end stands for a more hydrophilic compound, the high end for a more lipophilic compound. Broadly, the logD is the decadic logarithm of the distribution of all forms, ionised or not, between an organic phase and buffer at a given pH. Lower therefore signals a more hydrophilic compound. For orientation: pKa means the pH at which an ionisable group is half protonated. Read a high pKa as a weaker acid or stronger base.
